Reference: patent publication US20110165277A1, “Biological Materials and Uses Thereof” (priority 2008, published 2011)
“And” between values parts separate entries of the source, which are not always exact repeats. Equal values may be shown once.

How the values were obtained:
Listeria monocytogenes = test: Listeria survival in Rusitec (Example 5); format: cell-based; settings: 100 μg/ml; 24h after pathogen addition
Description: Volatile fatty acids, methane and bacterial numbers were measured on days 18 and 19 of the experiment. On day 19, Listeria inocula was added and it numbers traced over the last 24 hr of the experiment.

[1] = Further sandalwood analogues: CH4 per bottle, compound in DMSO or ETOH (Example 7, Table 15); format: cell-based; settings: for CH4: single bottles rep a, b, c, listed as Javanol batch no. 9000699712
Description: (§1) Further testing of sandalwood analogues was conducted following the protocols described in Examples 3 and 5.

rumen fluid = test: Methane production by buffered rumen fluid, sandalwood oil and synthetic replacements (Example 4); format: cell-based, cow; settings: 5, 50 or 100 or 500 pg/ml; 16 hours
Description: Thirty ml of a 33% buffered solution of rumen fluid withdrawn from a rumen canulated cow was incubated with 0.3 g of a 50:50 hay barley mix at 39° C. under anaerobic conditions
After 16 hours the volume of gas produced and the percentage of methane in the headspace was measured and the resultant fermentation fluid was analysed for volatile fatty acids by HPLC.
Sandalwood oil from either Fluka or SAFC and two different batches of Javanol (Givaudan) or a single batch of Santaliff (International Flavors & Fragrances) (both Javanol and Santaliff are artifical Sandalwood replacements) were added in the amount of 5, 50 or 100 or 500 pg/ml to the 30 ml buffered solution of rumen fluid prior to incubation.

[2] = Further sandalwood analogues: volatile fatty acid and methane production (Example 7, Table 14); format: cell-based
Description: as §1

[3] = tested on: rumen contents in Rusitec; test: Rusitec with Sandalwood oil and Javanol (Example 5); format: cell-based, cattle; settings: 100 μg/ml
Description: The rumen-simulation technique (Rusitec) was used as described by Czerkawski and Breckenridge (1977). The nominal volume in each reaction vessel was 850 ml and the dilution rate was set at 0.88 per day, the infused liquid being artificial saliva (McDougall, Biochem J 1948 43, 99-109) at pH 8.4. Inocula for the fermentation vessels were obtained from a pooled sample (liquid and particulate rumen contents) from three rumen-cannulated cattle fed on a conserved diet. On the first day of the experiment 300 ml of strained rumen fluid, 300 ml of water and 300 ml of artificial saliva were placed in each reaction vessel. Solid rumen contents (80 g) were weighed into a nylon bag and one of these was placed inside the food container in each vessel together with a bag (20 g/d) of a basal diet of grass hay, barley, molasses, soyabean meal and a vitamin and mineral mixture. The food was provided in nylon bags, pore size 50 μm, which were gently agitated in the liquid phase. Two bags were present at any time and one bag was replaced each day to give a 48 h incubation. The bags that were removed from the vessels were placed in plastic bags, and their contents washed and squeezed with 40 ml of artificial saliva. This was done twice for each bag, and the combined washings were poured back into the reaction vessels. Fermentation vessels were flushed with anaerobic grade CO2 before filling, after filling, and then every day during feeding (when the nylon bags with the food were changed). The duration of the experiment was 19 days, during which four vessels received Sandalwood oil (added the basal diet to reach an initial concentration of 100 μg/ml) four vessels received Javanol (added the basal diet to reach an initial concentration of 100 μg/ml) the remaining vessels were controls. Volatile fatty acids, methane and bacterial numbers were measured on days 18 and 19 of the experiment. On day 19, Listeria inocula was added and it numbers traced over the last 24 hr of the experiment.

## CC1(CO)CC1CC1CC2CC2(C)C1(C)C (stereo not shown) [Javanol, (1-Methyl-2-(1,2,2-trimethylbicyclo[3.1.0]hex-3-ylmethyl)cyclopropyl)methanol]
Listeria monocytogenes
  Listeria monocytogenes survival: not
[1]; 150 ug/30 ml in 200 ul DMSO
  CH4 (mean of rep a-c): 913.6635 µmol/g
  CH4: 956.9591 µmol/g and 888.4071 µmol/g and 895.6242 µmol/g
[1]; 150 ug/30 ml in 200 ul ETOH
  CH4 (mean of rep a-c): 1373.522 µmol/g
  CH4: 1403.051 µmol/g and 1381.609 µmol/g and 1335.905 µmol/g
[1]; 15000 ug/30 ml in 200 ul DMSO
  CH4 (mean of rep a-c): 605.2838 µmol/g
  CH4: 647.283 µmol/g and 563.0216 µmol/g and 605.5467 µmol/g
[1]; 15000 ug/30 ml in 200 ul ETOH
  CH4 (mean of rep a-c): 1158.255 µmol/g
  CH4: 1145.346 µmol/g and 1230.103 µmol/g and 1099.314 µmol/g
Rumen fluid
  methane compared to the control experiments: significantly decreased
[2]; 5 μg/ml
  Acetate: 2401 μmol/g of feed added
  Butyrate: 538 μmol/g of feed added
  Methane: 978 μmol/g of feed added
  Propionate: 493 μmol/g of feed added
  TVFA: 3432 μmol/g of feed added
[2]; 50 μg/ml
  Acetate: 2622 μmol/g of feed added
  Butyrate: 593 μmol/g of feed added
  Methane: 904 μmol/g of feed added
  Propionate: 524 μmol/g of feed added
  TVFA: 3739 μmol/g of feed added
[2]; 100 μg/ml
  Acetate: 2504 μmol/g of feed added
  Butyrate: 499 μmol/g of feed added
  Methane: 859 μmol/g of feed added
  Propionate: 542 μmol/g of feed added
  TVFA: 3545 μmol/g of feed added
[2]; 500 μg/ml
  Acetate: 2045 μmol/g of feed added
  Butyrate: 229 μmol/g of feed added
  Methane: 744 μmol/g of feed added
  Propionate: 833 μmol/g of feed added
  TVFA: 3107 μmol/g of feed added
[3]
  48 h DM degradation (%): 33.6%
  Acetate: 23.9 mmol/day
  Bacteria counts Cellulolytic: 1.9e+06 mL⁻¹
  Bacteria counts Total: 4.9e+09 mL⁻¹
  Butyrate: 4.4 mmol/day
  Methane production: decreased
  Propionate: 16.7 mmol/day
  Total VFA: 45.0 mmol/day
  VFA production: no effect
[3]; days 18 and 19
  CH4: 2.51 mmol/day
